pEC50: −log10 of the molar value.
How the values were obtained:
Format in all cases: functional
Oryctolagus cuniculus [1] = species: Oryctolagus cuniculus; test: Effective concentration required to produce 50% of the maximum platelet aggregation using rabbit platelet-rich plasma was determined.
Oryctolagus cuniculus [2] = species: Oryctolagus cuniculus; test: Maximum platelet aggregation units at 1.3*10e-5 molar concentration was determined.
Rattus norvegicus = species: Rattus norvegicus; test: Hypotensive activity of compound was determined in hypertensive rats, as dose required to decrease the mean arterial blood pressure 50 mmHg was determined
[3] = Ratio of MABP to that of platelet EC50 of the compound.
Oryctolagus cuniculus [4] = species: Oryctolagus cuniculus; test: Maximum platelet aggregation units at 5*10e-4 molar concentration was determined.
Oryctolagus cuniculus [5] = species: Oryctolagus cuniculus; test: Maximum platelet aggregation units at 5*10e-5 molar concentration was determined.
Oryctolagus cuniculus [6] = species: Oryctolagus cuniculus; test: Maximum platelet aggregation units at 5*10e-6 molar concentration was determined.
Oryctolagus cuniculus [7] = species: Oryctolagus cuniculus; test: Maximum platelet aggregation units at 1.9*10e-4 molar concentration was determined.

Structure (SMILES)	pEC50 (Oryctolagus cuniculus [1])	Max aggregation response (Oryctolagus cuniculus [2])	Dose (Rattus norvegicus) [mg/kg]	Ratio [3]	Max aggregation response (Oryctolagus cuniculus [4])	Max aggregation response (Oryctolagus cuniculus [5])	Max aggregation response (Oryctolagus cuniculus [6])	Max aggregation response (Oryctolagus cuniculus [7])
CCCCCCCCCCCCCCCCOCC(COP(=O)([O-])OCC[N+](C)(C)C)OC(C)=O (centres undefined) [PLATELET ACTIVATING FACTOR]	7.71	75	0.00125	0.65	–	–	–	–
CCCCCCCCCCCCCCCCOC(C)C(COP(=O)([O-])OCC[N+](C)(C)C)OC(C)=O (centres undefined)	6.29	–	0.00712	0.14	65	–	–	–
CCCCCCCCCCCCCCCCOC(C)(C)C(COP(=O)([O-])OCC[N+](C)(C)C)OC(C)=O (centres undefined)	4.96	–	0.8757	0.8	–	64	–	–
CCCCCCCCCCCCCCCCOCC(CCOP(=O)([O-])OCC[N+](C)(C)C)OC(C)=O (centres undefined)	5.85	–	0.0475	0.34	–	–	65	–
CCCCCCCCCCCCCCCCOCCC(COP(=O)([O-])OCC[N+](C)(C)C)OC(C)=O (centres undefined)	5.82	–	0.0243	0.16	–	–	–	50
CCCCCCCCCCCCCCCCOCC(OC(C)=O)C(C)OP(=O)([O-])OCC[N+](C)(C)C (centres undefined)	5.49	–	0.0634	0.2	–	–	–	70

— ChEMBL document CHEMBL1123119, “Analogues of platelet activating factor (PAF). 2. Some modifications of the glycerine backbone” (J Med Chem, 1985)
